Laboratory results taken from patent US20220331322A1, “COMPOUND FOR INHIBITING CELL DEATH” (Christian-Albrechts-Universität zu Kiel, priority 2019, published 2022).
Where a SMILES comes first, the peptide text is derived from it. The star is where a group is joined. Cbz = O=C(OCc1ccccc1)*; CH2F = FC*

How the values were obtained:
L929 cells [1] = experiment: Stimulation assay: TNF-α + 5Z-7 (± zVAD) induced RIPK1-dependent apoptosis/necroptosis; format: cell-based, murine; details: primidone 1 mM, Nec-1s 20 μM; for Block of RIPK1-dependent apoptosis (RDA): L929, 10 ng/ml TNF-α + 1 μM 5Z-7, 24 h, zVAD 25 μM
Method: Murine fibroblasts (L929 cells) were stimulated for 24 h at 37° C. in the presence of (a) vehicle, (b) 10 ng/ml tumor necrosis factor alpha (TNF-α), (c) 1 μM 5Z-7-oxozeaenol (5Z-7), (d) a combination of 10 ng/ml TNF-α and 1 μM 5Z-7, (e) a combination of 10 ng/ml TNF-α, 1 μM 5Z-7, and 20 μM necrostatin-1 (Nec-1s), (f) a combination of 10 ng/ml TNF-α, 1 μM 5Z-7, and 1 mM primidone (primidone is referred to in the Figures as compound A), (g) a combination of 10 ng/ml TNF-α, 1 μM 5Z-7, and 25 μM zVAD, (h) a combination of 10 ng/ml TNF-α, 1 μM 5Z-7, and 20 μM Nec-1s, and (i) a combination of 10 ng/ml TNF-α, 1 μM 5Z-7, 25 μM zVAD, and 1 mM primidone. TNF-α is a pro-inflammatory cytokine which triggers cell survival (canonical pathway) or cell death, depending on the cellular context. 5Z-7-oxozeaenol (5Z-7) is an inhibitor of transforming growth factor activated kinase 1 (TAK1). TAK1 is an intermediate in the signaling pathway of the TNF-receptor type 1 (TNFR1), and it is known that TAK1 is essential for the prevention of TNF-induced cell death. Cells in which TAK1 is disrupted or otherwise blocked are hypersensitive to TNF-α-induced cell death due to diminished prosurvival pathways including NF-κB and reduced antioxidant enzymes which results in activation of caspases. The compound zVAD is a pan-caspase inhibitor.

L929 cells [2] = experiment: Time profile of blocking TZ-induced necroptosis, FACS (7-AAD/Annexin V); format: cell-based, murine; details: L929, 10 ng/ml TNF-α + 25 μM zVAD (TZ), 24 h; primidone 1 mM, Nec-1s 25 μM; one representative experiment of three
Method: The time profile of primidone for blocking cell death was compared to the one of Nec-1s. For this purpose, murine L929 cells were stimulated at 37° C. for 24 h with 10 ng/ml TNF-α+25 μM zVAD (TZ) in the presence of 1 mM primidone and 25 μM Nec-1s, respectively, for the indicated durations. Nec-1s and primidone were added 30 min before, 60 min and 180 min after the induction of RIPK1-mediated necroptosis, respectively. Cell death was quantified by FACS analysis using 7-amino-actinomycin D and phosphatidylserine accessibility (Annexin V staining) as markers.

L929 cells [3] = experiment: TLR3-mediated cell death induced by poly (I:C) + zVAD; format: cell-based, murine; details: L929, 1 μg/ml poly (I:C) + 25 μM zVAD, 24 h; primidone 1 mM, Nec-1s 20 μM
From the text: Cell death was induced by activation of the Toll-like receptor 3 (TLR3). TLR3 is mainly expressed on immune cells, where it senses pathogen-associated molecular patterns and initiates innate immune response. The TLR3 agonist poly (I:C) was developed to mimic pathogens infection and boost immune system activation. In experimental models, poly (I:C) is known to induce regulated cell death in cells expressing TLR3. To examine whether primidone also blocks TLR3-mediated cell death, murine L929 cells were stimulated for 24 h at 37° C. with vehicle (a), 1 μg/ml of the TLR3 ligand poly (I:C) alone (b) or in combination with 25 μM zVAD (c). In addition, cells were stimulated with 1 μg/ml poly (I:C), 25 μM zVAD and 20 μM Nec-1s (d) and with 1 μg/ml poly (I:C), 25 μM zVAD and 1 mM primidone (e).

RIPK1 = biological target: T1, RIPK1 (Homo sapiens, UniProt Q13546); experiment: KINOMEscan profiling kinase assay
T1 sequence (Q13546 1-671): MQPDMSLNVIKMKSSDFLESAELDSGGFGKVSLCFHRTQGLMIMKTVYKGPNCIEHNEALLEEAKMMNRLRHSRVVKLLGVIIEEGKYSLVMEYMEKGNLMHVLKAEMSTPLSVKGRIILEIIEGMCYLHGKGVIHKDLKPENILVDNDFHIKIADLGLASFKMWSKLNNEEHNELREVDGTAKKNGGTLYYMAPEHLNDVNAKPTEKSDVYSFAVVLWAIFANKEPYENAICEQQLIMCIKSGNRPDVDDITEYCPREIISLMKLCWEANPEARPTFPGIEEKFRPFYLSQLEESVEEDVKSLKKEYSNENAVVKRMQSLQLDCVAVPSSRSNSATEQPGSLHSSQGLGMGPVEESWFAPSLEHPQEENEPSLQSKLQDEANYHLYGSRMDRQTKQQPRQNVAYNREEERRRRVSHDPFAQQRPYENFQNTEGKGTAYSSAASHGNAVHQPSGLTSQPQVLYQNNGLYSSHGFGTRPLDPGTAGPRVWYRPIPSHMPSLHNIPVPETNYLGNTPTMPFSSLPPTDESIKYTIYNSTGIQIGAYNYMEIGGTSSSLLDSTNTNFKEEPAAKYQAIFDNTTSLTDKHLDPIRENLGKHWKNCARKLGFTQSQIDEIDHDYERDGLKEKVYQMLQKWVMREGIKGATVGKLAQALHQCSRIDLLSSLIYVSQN
Method: To clarify, a KINOMEscan™ profiling kinase assay was performed. […] Dissociation constants (Kd) for test compound-kinase interactions are calculated by measuring the amount of kinase captured on the solid support as a function of the test compound concentration.

L929 cells [4] = experiment: TZ-induced RIPK1-dependent necroptosis, metabolites; format: cell-based, murine; details: L929, 10 ng/ml TNF-α + 25 μM zVAD, 24 h; 1 mM PEMA or PB
Method: Murine fibroblasts (L929 cells) were incubated for 24 h at 37° C. in the presence of (a) vehicle, (b) 1 mM PEMA or PB, respectively, (c) a combination of 10 ng/ml TNF-α+25 μM zVAD (TZ), and (d) a combination of TZ+PEMA or TZ+PB, respectively.

Jurkat cells = experiment: Anti-Fas antibody induced RIPK1-independent apoptosis; format: cell-based, human; details: 5 ng/ml anti-Fas antibody, 5 h, zVAD 25 μM, primidone 1 mM
Method: To this end, human T cells (Jurkat cells) were incubated for 5 h at 37° C. in the presence of (a) vehicle, (b) 5 ng/ml anti-Fas antibody, (c) 5 ng/ml anti-Fas antibody in combination with 25 μM of the pan-caspase inhibitor zVAD, and (d) 5 ng/ml anti-Fas antibody in combination with 1 mM primidone. The addition of the anti-Fas antibody induces apoptosis, a caspase-dependent form of regulated cell death that can be inhibited by the addition of the pan-caspase inhibitor zVAD.

How did the “Block of RIPK1-dependent necroptosis” value (L929 cells [1]; L929, 10 ng/ml TNF-α + 1 μM 5Z-7 + 25 μM zVAD, 24 h) turn out when `CN1C(=O)NC(Cc2c[nH]c3c(Cl)cccc23)C1=O` (stereo not shown) [Nec-1s] was run?
The value was “prevents RIPK-1 dependent cell death”.

What about the “Block of RIPK1-dependent apoptosis (RDA)” value (L929 cells [1]) of the same compound?
Its value is “can be blocked”.

What about the “Cells still alive, compound added 60 min after induction of cell death” value (L929 cells [2]) of the same compound?
Its value is 85.0%.

And the “Cells still alive, compound added 3 hours after induction of cell death” value (L929 cells [2])?
The value was 16.3%.

What about the “Protection from RIPK1-mediated cell death induced by poly (I:C) and zVAD” value (L929 cells [3]) of the same compound?
The value was “effectively protect cells”.

What about the “Binding to RIPK1 kinase domain (prevention of kinase binding to immobilized ligand)” value (RIPK1) of the same compound?
The value was “prevents the kinase from binding to an immobilized ligand”.

For `CCC(C(N)=O)(C(N)=O)c1ccccc1` [PEMA, 2-Ethyl-2-phenylmalonamide], which “Block of TZ-induced RIPK1-dependent cell death (necroptosis)” value (L929 cells [4]) is on record?
Its value is “can be blocked”.

For `CC(NC(=O)C(NC(=O)OCc1ccccc1)C(C)C)C(=O)NC(CC(=O)O)C(=O)CF` (stereo not drawn) [zVAD] (Cbz-Val-Ala-Asp-CH2F; configuration not given here), which “Inhibition of anti-Fas antibody induced cell death (caspase-dependent, RIPK1-independent)” value (Jurkat cells) is on record?
Its value is “completely blocked”.

And the “Block of RIPK1-dependent apoptosis (RDA)” value (L929 cells [1])?
Its value is “cell death occurs”.

`CCC1(c2ccccc2)C(=O)NC(=O)NC1=O` [PB, 5-Ethyl-5-phenyl-1,3-diazinane-2,4,6-trione] was tested. Which “Block of TZ-induced RIPK1-dependent cell death (necroptosis)” value (L929 cells [4]) did it give?
Its value is “can be blocked”.
